Results reported in patent US20040018606A1, “Control of protein systemic delivery by hypoxia using a tet-HIF1-alpha chimeric transactivator” (priority 2002, published 2004).

What follows are compounds tested on tetO-CMV promoter (assay: Luciferase activity in electroporated HeLa-16 cells treated with desferrioxamine, cobaltous chloride or 2-2′-dipyridyl). Conditions: HeLa-16 cells electroporated with pTHV, 24 hours.
Format: cell-based
Procedure: HeLa cells were maintained in Dulbecco Modified Medium with Glutamax (Gibco) supplemented with 10% fetal calf serum. For transfection, 5×10e6 HeLa cells were electroporated with a Gene Pulser (Biorad) at 200 V, 960 microfarads in the presence of 25 μg of each plasmid, NaCl 3M in 50 microliters. For control experiments a Bluescript pBSK+ was electroporated instead of the plasmid of interest. Each suspension of cells was then split in aliquots and incubated either in medium alone or in medium supplemented with doxycycline (1 μg/ml), cobaltous chloride (100 μM), desferrioxamine (Def) (130 μM), 2-2′-dipyridyl (DP) (100 μM) or the MG132 proteasome inhibiteur (2.5 μM). For hypoxic conditions cells were placed at 37° C. in a closed chamber with 1% oxygen, 5% CO2 and 94% N2 (Air Liquide).
Electroporated cells were trypsinized and the pellet was lysed in 200 μl LB buffer (Tris Phosphate pH 7.8 25 mM, MgCl2 8 mM, dithiothreitol 1 mM, Triton×100 1%, glycerol 15%). The lysat was then centrifugated at 4° C., the supernatant was collected and luciferase activity was measured using a luminometer (Lumat LB 9501, Berthold). Results were expressed as relative luciferase activity per mg of cell lysates protein. Protein concentration determination was performed with the BCA Protein Assay Kit (Pierce).
The reporter plasmid encoded for a luciferase gene inserted downstream of a minimal CMV promoter that contains seven binding sites for the E.Coli tetracycline repressor (tetO-CMV)(20). HeLa cells were stably transfected with this vector and one clone named HeLa-16 was used in all transient transfection assays.
HeLa-16 cells were electroporated with each pTHV or pTV. After electroporation cells were split into aliquots, and exposed in parallel to 21% O2, 1% O2, 2,2′-dipyridyl (DP), desferrioxamine (Def), cobaltous chloride (Co) or MG132. Luciferase activities were measured 24 hours later and normalised as RLU (relative light unit) per mg of proteins.

Structure (SMILES)	effectiveness of the chemical in inducing transactivation by pTHV
c1ccc(-c2ccccn2)nc1 [DP, 2-2′-dipyridyl]	most effective
[Cl-].[Cl-].[Co+2] [cobalt, cobaltous chloride]	lower than with DP
CC(=O)N(O)CCCCCNC(=O)CCC(=O)N(O)CCCCCNC(=O)CCC(=O)N(O)CCCCCN [desferrioxamine]	lower than with DP
